These results are taken from ChEMBL document CHEMBL3352468, “Synthesis and receptor binding in trans-CD ring-fused A-CD estrogens: comparison with the cis-fused isomers” (Bioorg Med Chem Lett, 2014).

The target of assay [1] is Estrogen receptor beta (Homo sapiens) (UniProt Q92731). The experiment in a line: Binding affinity to ERbeta (unknown origin) relative to estradiol.
Another assay is filed under the species Homo sapiens. The experiment in a line: Selectivity ratio of RBA for ERbeta (unknown origin) to RBA for ERalpha (unknown origin).

Sequence of Estrogen receptor beta (Homo sapiens) (Q92731 whole entry): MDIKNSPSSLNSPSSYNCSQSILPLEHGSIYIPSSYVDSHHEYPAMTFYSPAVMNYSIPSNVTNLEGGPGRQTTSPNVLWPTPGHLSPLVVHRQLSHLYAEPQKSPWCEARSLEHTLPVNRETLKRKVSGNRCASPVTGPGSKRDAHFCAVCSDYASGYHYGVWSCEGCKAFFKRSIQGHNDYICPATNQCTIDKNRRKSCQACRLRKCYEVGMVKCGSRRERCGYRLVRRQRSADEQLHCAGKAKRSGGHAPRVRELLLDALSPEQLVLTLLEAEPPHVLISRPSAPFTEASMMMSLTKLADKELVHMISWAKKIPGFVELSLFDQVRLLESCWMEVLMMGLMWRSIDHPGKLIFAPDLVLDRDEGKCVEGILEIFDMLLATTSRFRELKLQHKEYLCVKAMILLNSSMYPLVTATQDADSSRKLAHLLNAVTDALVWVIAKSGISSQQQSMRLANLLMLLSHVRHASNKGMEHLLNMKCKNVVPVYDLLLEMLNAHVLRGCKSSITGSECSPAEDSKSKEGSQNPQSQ

Take `C[C@]12CC=C(c3ccc(O)c(F)c3Cl)C[C@H]1CC[C@@H]2O`: in assay [1], the relative binding affinity (RBA) was determined as 149. Besides, the Selectivity ratio in the assay listed under Homo sapiens worked out at 3.

Regarding `Cc1cc(O)ccc1[C@H]1CC[C@@]2(C)[C@H](CC[C@@H]2O)C1`, the relative binding affinity (RBA) in assay [1] was 33.6. Further, in the assay filed under Homo sapiens, the Selectivity ratio worked out at 11.9.

`C[C@]12CC[C@H](c3ccc(O)c(F)c3)C[C@@H]1CC[C@@H]2O` registered a relative binding affinity (RBA) in assay [1] of 6.84. For the same compound, the Selectivity ratio in the assay listed under Homo sapiens turned out to be 4.1.

`C[C@]12CC[C@H](c3ccc(O)cc3)C[C@H]1CC[C@@H]2O`: the relative binding affinity (RBA) in assay [1] was 21.5. In addition, in the assay filed under Homo sapiens, the Selectivity ratio came out at 14.6.

`COc1cc(O)ccc1[C@H]1CC[C@@]2(C)[C@@H](CC[C@@H]2O)C1`: in assay [1], the relative binding affinity (RBA) came to 0.037. Also, the Selectivity ratio in the assay filed under Homo sapiens was 3.7.

As for `C[C@]12CC[C@H](c3ccc(O)c(F)c3)C[C@H]1CC[C@@H]2O`, the relative binding affinity (RBA) in assay [1] was 8.7. For the same compound, in the assay listed under Homo sapiens, the Selectivity ratio turned out to be 8.4.

On to `C[C@]12CC=C(c3ccc(O)cc3F)C[C@H]1CC[C@@H]2O`, for which the relative binding affinity (RBA) in assay [1] was determined as 49. The Selectivity ratio in the assay listed under Homo sapiens was 11.

In turn, `C[C@]12CC[C@H](c3ccc(O)cc3C(F)(F)F)C[C@@H]1CC[C@@H]2O` gave a relative binding affinity (RBA) in assay [1] of 4.9. Further, in the assay filed under Homo sapiens, the Selectivity ratio turned out to be 1.

For the compound `C[C@]12CC=C(c3ccc(O)cc3)C[C@@H]1CC[C@@H]2O`, the relative binding affinity (RBA) in assay [1] was found to be 17.3. Moreover, the Selectivity ratio in the assay listed under Homo sapiens was found to be 4.7.

In turn, `C[C@]12CC=C(c3ccc(O)cc3Cl)C[C@@H]1CC[C@@H]2O` came in with a relative binding affinity (RBA) in assay [1] of 14.1. The Selectivity ratio in the assay listed under Homo sapiens was determined as 1.5.

`COc1cc(O)ccc1[C@H]1CC[C@@]2(C)[C@H](CC[C@@H]2O)C1`: in assay [1], the relative binding affinity (RBA) is 0.123. For the same compound, the Selectivity ratio in the assay listed under Homo sapiens turned out to be 7.7.

Consider `Cc1c([C@H]2CC[C@@]3(C)[C@H](CC[C@@H]3O)C2)cc(F)c(O)c1F`, for which, in assay [1], the relative binding affinity (RBA) was 5.35. Also, in the assay listed under Homo sapiens, the Selectivity ratio is 7.1.

`Cc1cc(O)ccc1[C@H]1CC[C@@]2(C)[C@@H](CC[C@@H]2O)C1` registered a relative binding affinity (RBA) in assay [1] of 1.3. Besides, in the assay filed under Homo sapiens, the Selectivity ratio turned out to be 2.8.

In assay [1], `COc1cc(O)ccc1C1=CC[C@@]2(C)[C@H](CC[C@@H]2O)C1` displayed a relative binding affinity (RBA) of 0.022. The Selectivity ratio in the assay filed under Homo sapiens was 5.5.

In assay [1], `C[C@]12CC=C(c3cc(F)c(O)c(F)c3Cl)C[C@H]1CC[C@@H]2O` gave a relative binding affinity (RBA) of 6. For the same compound, in the assay filed under Homo sapiens, the Selectivity ratio worked out at 1.8.

On to `C[C@]12CC[C@H](c3cc(F)c(O)c(F)c3F)C[C@H]1CC[C@@H]2O`, for which the relative binding affinity (RBA) in assay [1] is 1.73. Also, in the assay filed under Homo sapiens, the Selectivity ratio came to 9.3.

In assay [1], `C[C@]12CC[C@H](c3ccc(O)c(F)c3F)C[C@@H]1CC[C@@H]2O` gave a relative binding affinity (RBA) of 7.3. The Selectivity ratio in the assay listed under Homo sapiens was 7.9.

For the compound `C[C@]12CC=C(c3cc(F)c(O)cc3F)C[C@H]1CC[C@@H]2O`, the relative binding affinity (RBA) in assay [1] was 2.7. Further, the Selectivity ratio in the assay listed under Homo sapiens was determined as 6.1.

Consider `C[C@]12CC[C@H](c3ccc(O)cc3F)C[C@@H]1CC[C@@H]2O`, for which the relative binding affinity (RBA) in assay [1] is 13.6. Also, the Selectivity ratio in the assay filed under Homo sapiens came out at 3.2.

Take `Cc1c([C@H]2CC[C@@]3(C)[C@@H](CC[C@@H]3O)C2)cc(F)c(O)c1F`: in assay [1], the relative binding affinity (RBA) amounted to 0.226. Also, the Selectivity ratio in the assay listed under Homo sapiens came to 2.8.

In turn, `C[C@]12CC=C(c3ccc(O)cc3)C[C@H]1CC[C@@H]2O` showed a relative binding affinity (RBA) in assay [1] of 6.8. In addition, in the assay listed under Homo sapiens, the Selectivity ratio was found to be 17.

`C[C@]12CC=C(c3ccc(O)cc3C(F)(F)F)C[C@H]1CC[C@@H]2O` had a relative binding affinity (RBA) in assay [1] of 174. Moreover, the Selectivity ratio in the assay listed under Homo sapiens stood at 1.4.

In assay [1], `C[C@]12CC[C@H](c3ccc(O)cc3O)C[C@@H]1CC[C@@H]2O` returned a relative binding affinity (RBA) of 0.15. In the assay listed under Homo sapiens, the Selectivity ratio was 4.1.

In the case of `C[C@]12CC[C@H](c3ccc(O)c(F)c3F)C[C@H]1CC[C@@H]2O`, the relative binding affinity (RBA) in assay [1] turned out to be 42.8. Further, the Selectivity ratio in the assay filed under Homo sapiens was 9.3.

Compound `C[C@]12CC[C@H](c3ccc(O)cc3O)C[C@H]1CC[C@@H]2O` registered a relative binding affinity (RBA) in assay [1] of 3.97. In addition, the Selectivity ratio in the assay listed under Homo sapiens is 15.3.

In turn, `C[C@]12CC=C(c3ccc(O)cc3Cl)C[C@H]1CC[C@@H]2O` displayed a relative binding affinity (RBA) in assay [1] of 118. Further, the Selectivity ratio in the assay filed under Homo sapiens amounted to 2.

For the compound `COc1cc(O)ccc1C1=CC[C@@]2(C)[C@@H](CC[C@@H]2O)C1`, in assay [1], the relative binding affinity (RBA) worked out at 0.029. The Selectivity ratio in the assay listed under Homo sapiens turned out to be 4.8.

On to `C[C@]12CC[C@H](c3cc(F)c(O)c(F)c3F)C[C@@H]1CC[C@@H]2O`, for which the relative binding affinity (RBA) in assay [1] came out at 0.097. Also, in the assay listed under Homo sapiens, the Selectivity ratio is 3.3.

With `C[C@]12CC=C(c3ccc(O)cc3F)C[C@@H]1CC[C@@H]2O`, the relative binding affinity (RBA) in assay [1] turned out to be 38. In addition, the Selectivity ratio in the assay filed under Homo sapiens was 1.7.

`C[C@]12CC=C(c3ccc(O)c(Cl)c3Cl)C[C@H]1CC[C@@H]2O`: in assay [1], the relative binding affinity (RBA) worked out at 55. For the same compound, the Selectivity ratio in the assay listed under Homo sapiens was found to be 18.3.

In turn, `C[C@]12CC[C@H](c3ccc(O)cc3)C[C@@H]1CC[C@@H]2O` showed a relative binding affinity (RBA) in assay [1] of 10. In addition, in the assay filed under Homo sapiens, the Selectivity ratio is 4.2.

Consider `C[C@]12CC=C(c3cc(F)c(O)c(F)c3F)C[C@@H]1CC[C@@H]2O`, for which, in assay [1], the relative binding affinity (RBA) stood at 0.076. Further, in the assay listed under Homo sapiens, the Selectivity ratio came out at 0.8.

Consider `C[C@]12CC[C@H](c3ccc(O)cc3F)C[C@H]1CC[C@@H]2O`, for which the relative binding affinity (RBA) in assay [1] is 136. For the same compound, in the assay filed under Homo sapiens, the Selectivity ratio worked out at 5.
